Assay results published in ChEMBL document CHEMBL1159138, “Antibacterial evaluation of novel N-Arylimino-1,2,3-dithiazoles and N-arylcyanothioformamides” (1996).
≈ marks a conversion by molar mass, not a printed value. Calls of active or inactive are those of the source. The rule behind the calls is not given here.

Experiments:
Enterococcus faecalis [1] = test: Antibacterial activity was determined against gram positive bacteria - Enterococcus faecalis (ATCC 29212); Inactive; assay type: functional, organism-based
Listeria monocytogenes [2] = test: Antibacterial activity was determined against gram positive bacteria - Listeria monocytogenes (CIP 82110T); Inactive; assay type: functional, organism-based
Staphylococcus aureus [3] = test: Antibacterial activity was determined against gram positive bacteria - Staphylococcus aureus(ATCC 9144); Inactive; assay type: functional, organism-based
Streptococcus pyogenes [4] = test: Antibacterial activity was determined against gram positive bacteria - Streptococcus pyogenes(ATCC 19165); Inactive; assay type: functional, organism-based
Enterococcus faecalis [5] = test: Antibacterial activity was determined against gram positive bacteria - Enterococcus faecalis (ATCC 29212).; assay type: functional
Enterococcus faecalis [6] = test: Minimum inhibitory concentration against Enterococcus faecalis (ATCC 29212) was determined using broth dilution method.; assay type: functional
Listeria monocytogenes [7] = test: Antibacterial activity was determined against gram positive bacteria - Listeria monocytogenes (CIP 82110T); assay type: functional
Staphylococcus aureus [8] = test: Minimum inhibitory concentration against Staphylococcus aureus(ATCC 9144) was determined using broth dilution method.; assay type: functional
Streptococcus pyogenes [9] = test: Minimum inhibitory concentration against Streptococcus pyogenes(ATCC 19165) was determined using broth dilution method.; assay type: functional
Staphylococcus aureus [10] = test: Antibacterial activity was determined against gram positive bacteria - Staphylococcus aureus(ATCC 9144); assay type: functional
Streptococcus pyogenes [11] = test: Antibacterial activity was determined against gram positive bacteria - Streptococcus pyogenes(ATCC 19165); assay type: functional
Listeria monocytogenes [12] = test: Minimum inhibitory concentration against Listeria monocytogenes (CIP 82110T) was determined using broth dilution method.; assay type: functional

| Structure (SMILES) | MIC (Enterococcus faecalis [6]) | MIC (Staphylococcus aureus [8]) | MIC (Streptococcus pyogenes [9]) | MIC (Listeria monocytogenes [12]) | Zone diameter (Enterococcus faecalis [1]) | Zone diameter (Listeria monocytogenes [2]) | Zone diameter (Staphylococcus aureus [3]) | Zone diameter (Streptococcus pyogenes [4]) | Zone diameter (Enterococcus faecalis [5]) | Zone diameter (Listeria monocytogenes [7]) | Zone diameter (Staphylococcus aureus [10]) | Zone diameter (Streptococcus pyogenes [11]) |
| --- | --- | --- | --- | --- | --- | --- | --- | --- | --- | --- | --- | --- |
| N#CC(=S)Nc1ccc2c(c1)OCCO2 | – | – | – | – | inactive | inactive | inactive | inactive | – | – | – | – |
| COc1ccc(NC(=S)C#N)cc1 | – | – | – | – | inactive | inactive | inactive | inactive | – | – | – | – |
| COc1cc(/N=c2\ssnc2Cl)cc(OC)c1OC | 32 µg/mL (≈ 100 µM) | 32 µg/mL (≈ 100 µM) | 32 µg/mL (≈ 100 µM) | 32 µg/mL (≈ 100 µM) | – | – | – | – | 10 mm | 17 mm | 13 mm | 16 mm |
| Clc1nss/c1=N\c1ccc2c(c1)OCCO2 | 32 µg/mL (≈ 112 µM) | 32 µg/mL (≈ 112 µM) | 32 µg/mL (≈ 112 µM) | 32 µg/mL (≈ 112 µM) | – | – | – | – | 10 mm | 10 mm | 12 mm | 11 mm |
| COC(=O)c1cc(OC)c(OC)cc1/N=c1\ssnc1Cl | 32 µg/mL (≈ 92.3 µM) | 32 µg/mL (≈ 92.3 µM) | 32 µg/mL (≈ 92.3 µM) | 32 µg/mL (≈ 92.3 µM) | – | – | – | – | 14 mm | 17 mm | 17 mm | 14 mm |
| COC(=O)c1cc(OC)c(OC)cc1/N=C(/S)C#N | – | – | – | – | inactive | inactive | inactive | inactive | – | – | – | – |
| COc1cc(C#N)c(/N=c2\ssnc2Cl)cc1OC | 32 µg/mL (≈ 102 µM) | 32 µg/mL (≈ 102 µM) | 32 µg/mL (≈ 102 µM) | 32 µg/mL (≈ 102 µM) | – | – | – | – | 10 mm | 10 mm | 10 mm | 13 mm |
| COc1ccc(NC(=S)C#N)cc1OC | – | – | – | – | inactive | inactive | inactive | inactive | – | – | – | – |
| COc1ccccc1/N=C(/S)C#N | – | – | – | – | inactive | inactive | inactive | inactive | – | – | – | – |
| COc1cc(C#N)c(/N=C(/S)C#N)cc1OC | – | – | – | – | inactive | inactive | inactive | inactive | – | – | – | – |
| COc1cc(NC(=S)C#N)cc(OC)c1OC | – | – | – | – | inactive | inactive | inactive | inactive | – | – | – | – |
| COC(=O)c1ccccc1/N=C(/S)C#N | – | – | – | – | inactive | inactive | inactive | inactive | – | – | – | – |
| N#CC(=S)Nc1ccccc1 | – | – | – | – | inactive | inactive | inactive | inactive | – | – | – | – |
| N#CC(=S)Nc1ccccc1C#N | – | – | – | – | inactive | inactive | inactive | inactive | – | – | – | – |

More lines, main results first:

| MIC (Enterococcus faecalis [6]) | MIC (Staphylococcus aureus [8]) | MIC (Streptococcus pyogenes [9]) | MIC (Listeria monocytogenes [12]) | Structure (SMILES) | Zone diameter (Enterococcus faecalis [1]) | Zone diameter (Listeria monocytogenes [2]) | Zone diameter (Staphylococcus aureus [3]) | Zone diameter (Streptococcus pyogenes [4]) | Zone diameter (Enterococcus faecalis [5]) | Zone diameter (Listeria monocytogenes [7]) | Zone diameter (Staphylococcus aureus [10]) | Zone diameter (Streptococcus pyogenes [11]) |
| --- | --- | --- | --- | --- | --- | --- | --- | --- | --- | --- | --- | --- |
| 32 µg/mL (≈ 126 µM) | 32 µg/mL (≈ 126 µM) | 32 µg/mL (≈ 126 µM) | 32 µg/mL (≈ 126 µM) | N#Cc1ccccc1/N=c1\ssnc1Cl | – | – | – | – | 11 mm | 11 mm | 11 mm | 15 mm |
| 16 µg/mL (≈ 61.8 µM) | 32 µg/mL (≈ 124 µM) | 32 µg/mL (≈ 124 µM) | 16 µg/mL (≈ 61.8 µM) | COc1ccccc1/N=c1\ssnc1Cl | – | – | – | – | 17 mm | 21 mm | 20 mm | 22 mm |
| 32 µg/mL (≈ 124 µM) | 32 µg/mL (≈ 124 µM) | 32 µg/mL (≈ 124 µM) | 32 µg/mL (≈ 124 µM) | COc1ccc(/N=c2\ssnc2Cl)cc1 | – | – | – | – | 14 mm | 15 mm | 17 mm | 15 mm |
| 32 µg/mL (≈ 111 µM) | 32 µg/mL (≈ 111 µM) | 32 µg/mL (≈ 111 µM) | 32 µg/mL (≈ 111 µM) | COc1ccc(/N=c2\ssnc2Cl)cc1OC | – | – | – | – | 13 mm | 12 mm | 13 mm | 16 mm |
| 16 µg/mL (≈ 70 µM) | 16 µg/mL (≈ 70 µM) | 32 µg/mL (≈ 140 µM) | 16 µg/mL (≈ 70 µM) | Clc1nss/c1=N\c1ccccc1 | – | – | – | – | 19 mm | 27 mm | 29 mm | 26 mm |
| 32 µg/mL (≈ 112 µM) | 32 µg/mL (≈ 112 µM) | 32 µg/mL (≈ 112 µM) | 32 µg/mL (≈ 112 µM) | COC(=O)c1ccccc1/N=c1\ssnc1Cl | – | – | – | – | 16 mm | 17 mm | 18 mm | 18 mm |
